# Assay results reported in patent US20160244437A1, “SUBSTITUTED PHENYLALANINE DERIVATIVES” (BAYER PHARMA AKTIENGESELLSCHAFT, priority 2013, published 2016).
# Structures can show the parent of a compound that is named as a salt.
# Experiments:
# human factor XIa = molecular target: T1, human factor XIa (Homo sapiens, UniProt P03951); test: Measurement of FXIa inhibition (fluorogenic peptide substrate Boc-Glu(OBzl)-Ala-Arg-AMC); type: biochemical; settings: factor XIa from Kordia 0.45 nM, 15 min pre-incubation, 30 min at 22° C., fluorescence
# T1 construct: purchased Kordia
# T1 sequence (P03951 388-625 limits assumed): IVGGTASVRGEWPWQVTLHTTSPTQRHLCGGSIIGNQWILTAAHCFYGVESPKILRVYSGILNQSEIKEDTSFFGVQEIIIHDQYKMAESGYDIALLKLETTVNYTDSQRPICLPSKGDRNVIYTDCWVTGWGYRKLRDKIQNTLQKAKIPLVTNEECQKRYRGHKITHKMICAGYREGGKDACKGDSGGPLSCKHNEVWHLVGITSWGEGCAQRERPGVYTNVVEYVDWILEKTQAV
# T1 sequence (P03951 19-387 partner limits assumed): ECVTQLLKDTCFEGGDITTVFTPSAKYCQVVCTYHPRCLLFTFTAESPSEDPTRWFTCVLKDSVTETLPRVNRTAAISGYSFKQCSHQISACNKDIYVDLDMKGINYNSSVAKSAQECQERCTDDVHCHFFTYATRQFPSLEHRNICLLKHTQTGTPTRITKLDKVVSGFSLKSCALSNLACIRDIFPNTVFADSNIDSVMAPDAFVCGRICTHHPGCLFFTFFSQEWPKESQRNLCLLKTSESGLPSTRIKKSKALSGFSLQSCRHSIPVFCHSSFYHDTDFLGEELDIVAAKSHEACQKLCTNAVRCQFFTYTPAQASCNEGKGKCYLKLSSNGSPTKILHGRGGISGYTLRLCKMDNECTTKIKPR
# human and animal plasma = test: Determination of anticoagulatory activity: activated partial thromboplastin time (aPTT) in plasma; settings: concentration of test substance which brings about a 1.5-fold extension of the aPTT; plasma in vitro, C.K. Prest kit
# Method in brief: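 Citrated plasma (human, mouse, rat, rabbit, pig, dog) incubated with varying compound concentrations and cephalin/kaolin PTT reagent for 3 minutes at 37° C.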
Structure (SMILES),IC50 (human factor XIa),aPTT (human and animal plasma)
"COCc1nnc(-c2ccc(NC(=O)[C@H](Cc3cccc(-c4cccc5ncccc45)c3)NC(=O)[C@H]3CC[C@H](CN)CC3)cc2)[nH]1 [Example 105, N-alpha-{[trans-4-(Aminomethyl)cyclohexyl]carbonyl}-3-quinolin-5-yl-N-{4-[5-(methoxymethyl)-4H-1,2,4-triazol-3-yl]phenyl}-L-phenylalaninamide hydrochloride]",13 nM,0.14 µmol/L
"NC[C@H]1CC[C@H](C(=O)N[C@@H](Cc2cccc(-c3cnc(N4CCNCC4)nc3)c2)C(=O)Nc2ccc3[nH]c(=O)[nH]c3c2)CC1 [Example 67, N-alpha-{[trans-4-(Aminomethyl)cyclohexyl]carbonyl}-N-(2-oxo-2,3-dihydro-1H-benzimidazol-5-yl)-3-[2-(piperazin-1-yl)pyrimidin-5-yl]-L-phenylalaninamide hydrochloride]",37 nM,0.15 µmol/L
"Cc1ccc(S(=O)(=O)NCc2ccccc2)cc1-c1cccc(C[C@H](NC(=O)[C@H]2CC[C@H](CN)CC2)C(=O)Nc2ccc3[nH]c(=O)[nH]c3c2)c1 [Example 12, trans-4-(Aminomethyl)-N-{(2S)-3-[5′-(benzylsulphamoyl)-2′-methylbiphenyl-3-yl]-1-oxo-1-[(2-oxo-2,3-dihydro-1H-benzimidazol-5-yl)amino]propan-2-yl}cyclohexanecarboxamide hydrochloride]",3.2 nM,0.3 µmol/L
"COc1ccc(C[C@H](NC(=O)[C@H]2CC[C@H](CN)CC2)C(=O)Nc2ccc(-c3nn[nH]n3)cc2)cc1-c1ccc(C(=O)NCCN)cc1C [Example 58, N-(2-Aminoethyl)-5′-[(2S)-2-({[trans-4-(aminomethyl)cyclohexyl]carbonyl}amino)-3-oxo-3-{[4-(2H-tetrazol-5-yl)phenyl]amino}propyl]-2′-methoxy-2-methylbiphenyl-4-carboxamide hydrochloride]",17 nM,0.3 µmol/L
"COCCOCCOCCNC(=O)c1cccc(-c2cc(C[C@H](NC(=O)[C@H]3CC[C@H](CN)CC3)C(=O)Nc3ccc(-c4nnn[nH]4)cc3)ccc2C)c1 [Example 18, 5′-[(2S)-2-({[trans-4-(Aminomethyl)cyclohexyl]carbonyl}amino)-3-oxo-3-{[4-(1H-tetrazol-5-yl)phenyl]amino}propyl]-N-{2-[2-(2-methoxyethoxy)ethoxy]ethyl}-2′-methylbiphenyl-3-carboxamide hydrochloride]",5.7 nM,0.4 µmol/L
"Cc1ccc2[nH]ncc2c1-c1cccc(C[C@H](NC(=O)[C@H]2CC[C@H](CN)CC2)C(=O)Nc2ccc(-c3noc(=O)[nH]3)cc2)c1 [Example 87, N-alpha-{[trans-4-(Aminomethyl)cyclohexyl]carbonyl}-3-(5-methyl-1H-indazol-4-yl)-N-[4-(5-oxo-4,5-dihydro-1,2,4-oxadiazol-3-yl)phenyl]-L-phenylalaninamide hydrochloride]",3.5 nM,0.49 µmol/L
"COc1ccc(C[C@H](NC(=O)[C@H]2CC[C@H](CN)CC2)C(=O)Nc2ccc(-c3nn[nH]n3)cc2)cc1-c1ccc(C(=O)N[C@@H]2CCNC2)cc1C [Example 57, 5′-[(2S)-2-({[trans-4-(Aminomethyl)cyclohexyl]carbonyl}amino)-3-oxo-3-{[4-(2H-tetrazol-5-yl)phenyl]amino}propyl]-2′-methoxy-2-methyl-N-[(3R)-pyrrolidin-3-yl]biphenyl-4-carboxamide hydrochloride]",17 nM,0.3 µmol/L
"NC[C@H]1CC[C@H](C(=O)N[C@@H](Cc2cccc(-c3cnc(N4CCOCC4)nc3)c2)C(=O)Nc2ccc(-c3nnc(Cl)[nH]3)cc2)CC1 [Example 92, N-alpha-{[trans-4-(Aminomethyl)cyclohexyl]carbonyl}-N-[4-(3-chloro-4H-1,2,4-triazol-5-yl)phenyl]-3-[2-(morpholin-4-yl)pyrimidin-5-yl]-L-phenylalaninamide hydrochloride]",3.6 nM,0.37 µmol/L
"Cc1cc(N)ccc1-c1cccc(C[C@H](NC(=O)[C@H]2CC[C@H](CN)CC2)C(=O)Nc2ccc(-c3nnn[nH]3)cc2)c1 [Example 97, trans-4-(Aminomethyl)-N-[(2S)-3-(4′-amino-2′-methylbiphenyl-3-yl)-1-oxo-1-{[4-(1H-tetrazol-5-yl)phenyl]amino}propan-2-yl]cyclohexanecarboxamide hydrochloride]",2.1 nM,0.12 µmol/L
"CN(C)CCCOc1ccc(-c2cccc(C[C@H](NC(=O)[C@H]3CC[C@H](CN)CC3)C(=O)Nc3ccc(-c4nnc(C(F)(F)F)[nH]4)cc3)c2)cn1 [Example 101, N-alpha-{[trans-4-(Aminomethyl)cyclohexyl]carbonyl}-3-{6-[3-(dimethylamino)propoxy]pyridin-3-yl}-N-{4-[3-(trifluoromethyl)-4H-1,2,4-triazol-5-yl]phenyl}-L-phenylalaninamide hydrochloride]",14 nM,0.43 µmol/L
"CON(C)C(=O)c1ccc(F)c(-c2cccc(C[C@H](NC(=O)[C@H]3CC[C@H](CN)CC3)C(=O)Nc3ccc(-c4nnn[nH]4)cc3)c2)c1 [Example 45, 3′-[(2S)-2-({[trans-4-(Aminomethyl)cyclohexyl]carbonyl}amino)-3-oxo-3-{[4-(1H-tetrazol-5-yl)phenyl]amino}propyl]-6-fluoro-N-methoxy-N-methylbiphenyl-3-carboxamide hydrochloride]",5.8 nM,0.3 µmol/L
"Cc1ccc(C[C@H](NC(=O)[C@H]2CC[C@H](CN)CC2)C(=O)Nc2ccc(-c3nnn[nH]3)cc2)cc1-c1cccc(C(=O)NC2CCN(C(C)C)CC2)c1 [Example 19, 5′-[(2S)-2-({[trans-4-(Aminomethyl)cyclohexyl]carbonyl}amino)-3-oxo-3-{[4-(1H-tetrazol-5-yl)phenyl]amino}propyl]-2′-methyl-N-[1-(propan-2-yl)piperidin-4-yl]biphenyl-3-carboxamide hydrochloride]",6 nM,0.14 µmol/L
"Cc1ccc(C(=O)NC2C3CNCC32)cc1-c1cccc(C[C@H](NC(=O)C2CCC(CN)CC2)C(=O)Nc2ccc(-c3nnn[nH]3)cc2)c1 (stereo partly drawn) [Example 16, 3′-[(2S)-2-({[trans-4-(Aminomethyl)cyclohexyl]carbonyl}amino)-3-oxo-3-{[4-(1H-tetrazol-5-yl)phenyl]amino}propyl]-N-(3-azabicyclo[3.1.0]hex-6-yl)-6-methylbiphenyl-3-carboxamide hydrochloride]",5.5 nM,0.25 µmol/L
"Cc1ccc(S(=O)(=O)NCc2ccccc2)cc1-c1cccc(C[C@H](NC(=O)[C@H]2CC[C@H](CN)CC2)C(=O)Nc2ccc(-c3nnn[nH]3)cc2)c1 [Example 1, trans-4-(Aminomethyl)-N-[(2S)-3-[5′-(benzylsulphamoyl)-2′-methylbiphenyl-3-yl]-1-oxo-1-{[4-(1H-tetrazol-5-yl)phenyl]amino}propan-2-yl]cyclohexanecarboxamide hydrochloride]",0.4 nM,0.1 µmol/L
"NC[C@H]1CC[C@H](C(=O)N[C@@H](Cc2cccc(-c3cc(C(N)=O)ccc3Cl)c2)C(=O)Nc2ccc(-c3nnn[nH]3)cc2)CC1 [Example 38, 3′-[(2S)-2-({[trans-4-(Aminomethyl)cyclohexyl]carbonyl}amino)-3-oxo-3-{[4-(1H-tetrazol-5-yl)phenyl]amino}propyl]-6-chlorobiphenyl-3-carboxamide hydrochloride]",4.8 nM,0.2 µmol/L
"CN(C)CCCOc1ccc(-c2cccc(C[C@H](NC(=O)[C@H]3CC[C@H](CN)CC3)C(=O)Nc3ccc(-c4nnn[nH]4)cc3)c2)cn1 [Example 59, N-alpha-{[trans-4-(Aminomethyl)cyclohexyl]carbonyl}-3-{6-[3-(dimethylamino)propoxy]pyridin-3-yl}-N-[4-(1H-tetrazol-5-yl)phenyl]-L-phenylalaninamide hydrochloride]",7.2 nM,0.19 µmol/L
"CN1CCN(C(=O)c2ccc(-c3cccc(C[C@H](NC(=O)[C@H]4CC[C@H](CN)CC4)C(=O)Nc4ccc(-c5nnn[nH]5)cc4)c3)cc2)CC1 [Example 46, trans-4-(Aminomethyl)-N-[(2S)-3-{4′-[(4-methylpiperazin-1-yl)carbonyl]biphenyl-3-yl}-1-oxo-1-{[4-(1H-tetrazol-5-yl)phenyl]amino}propan-2-yl]cyclohexanecarboxamide hydrochloride]",7.9 nM,0.32 µmol/L
"Cc1ccc(S(=O)(=O)N2CCCC2)cc1-c1cccc(C[C@H](NC(=O)[C@H]2CC[C@H](CN)CC2)C(=O)Nc2ccc3[nH]c(=O)[nH]c3c2)c1 [Example 11, trans-4-(Aminomethyl)-N-{(2S)-3-[2′-methyl-5′-(pyrrolidin-1-ylsulphonyl)biphenyl-3-yl]-1-oxo-1-[(2-oxo-2,3-dihydro-1H-benzimidazol-5-yl)amino]propan-2-yl}cyclohexanecarboxamide hydrochloride]",7.9 nM,0.3 µmol/L
"CN(C)CCCOc1ccc(-c2cccc(C[C@H](NC(=O)[C@H]3CC[C@H](CN)CC3)C(=O)Nc3ccc(-c4nnc(Cl)[nH]4)cc3)c2)cn1 [Example 90, N-alpha-{[trans-4-(Aminomethyl)cyclohexyl]carbonyl}-N-[4-(3-chloro-4H-1,2,4-triazol-5-yl)phenyl]-3-{6-[3-(dimethylamino)propoxy]pyridin-3-yl}-L-phenylalaninamide hydrochloride]",5.8 nM,0.08 µmol/L
"COc1ccc(-c2cccc(C[C@H](NC(=O)[C@H]3CC[C@H](CN)CC3)C(=O)Nc3ccc(-c4nnn[nH]4)cc3)c2)cc1S(=O)(=O)N1CCOCC1 [Example 8, trans-4-(Aminomethyl)-N-[(2S)-3-[4′-methoxy-3′-(morpholin-4-ylsulphonyl)biphenyl-3-yl]-1-oxo-1-{[4-(1H-tetrazol-5-yl)phenyl]amino}propan-2-yl]cyclohexanecarboxamide hydrochloride]",3.8 nM,0.41 µmol/L
